Data set [1] relates to mixed cultures of rat cortical neurones and astrocytes. As to the kind of experiment: Density of neuritic extensions marked by anti-neurofilament antibody, with or without excess glutamate. The format is cell-based. The text has this: The principle of the investigation consisted of evaluating the survival of cortical neurones in co-culture with astrocytes after the application of a neurotoxic agent, excess glutamate.
Neurone survival is quantified by the density of the system of neuritic extensions marked by an anti-neurofilament antibody in the absence or presence of glutamate.
(§1) • Cell type: Initial culture of cortical neurones from 14 day rat embryos and initial culture of cortical astrocytes from newborn rats. • Culture medium: DMEM-Ham F12 (Invitrogen 21331020) • B27 2% (invitrogen 17504044) • L-glutamine 2 mM (Invitrogen 25030024) • Penicillin 50 UI/ml—Streptomycin 50 μg/ml (Invitrogen 15070063) • Nerve Growth Factor 10 ng/ml (NGF, Invitrogen 13290.010) • Survival medium: MEM (Invitrogen 21090022) • L-glutamine 2 mM (Invitrogen 25030024) • Penicillin 50 UI/ml—Streptomycin 50 μg/ml (Invitrogen 15070063) • Supplement N2 (Invitrogen 17502-048) 1.2 Prior Cytotoxicity • Platelets: 96 wells • Culture time: 8 days • Cells/well: cortical neurones+astrocytes • Product range: from 100 μM then ratio 3 • Replicates: 3 • Cell/product contact: 48 hours • Evaluation parameters: microscopic observation and MTT hydrolysis. • MTT: 3-(4,5-dimethylthiozol-2-yl)-2,5-diphenyltetrazolium bromide 1.3 Treatment and Analysis of the Network of Extensions Marked with Antineurofilament Antibody
The cortical neurones were obtained from the cortex of 14 day rat embryos cultured in platelet culture medium 96 and then in a stove at 37° C. and 5% CO2 with saturated humidity. After 2 days culture astrocytes obtained from newborn rat cortex were seeded in the wells (in a ratio of 1 astrocyte to 4 neurones). After 10 days culture the mature neurones synthesised neurofilaments (structural protein specific to mature neurones); in addition to this these neurones expressed functional receptors to glutamate on their surfaces and could therefore be intoxicated.
On the 12th day of culture the medium was replaced by survival medium with or without etifoxine in 3 concentrations and the neurones were or were not intoxicated with glutamate (Sigma G1501) at a strength of 2 mM and 10 mM. Each culture condition was applied to 4 wells. The cultures were incubated for 2 periods (6 and 24 hours).
A positive control was carried out in the survival culture medium containing Nerve Growth Factor (NGF; 10 ng/ml) and basic Fibroblast Growth Factor (FGFb; 5 ng/ml) and the cells were intoxicated under the same conditions.
At the end of the two incubation periods (6 and 24 hours) the cell layers were fixed and marked with a anti-68- and 200 kD neurofilament monoclonal antibody (DAKO M0762) and then developed using a mouse anti-immunoglobulin goat antibody conjugate Alexia fluor 488 (Interchim A-11029). Controls without primary antibody were performed. All the controls were negative (no non-specific labelling). After extensive washing with PBS the preparations were observed under epi-fluorescence (Nikon Diaphot 300 microscope).
2 images were obtained for each culture well (4 wells per experimental condition) using a Nikon DXM1200F camera controlled by LUCIA 6.0 software.
All the images were obtained under the same conditions and with identical camera settings.
The densities of the networks of extensions marked with anti-neurofilament antibody were examined using LUCIA 6.0 software. Initial image processing made it possible to increase the intensity of the specific marking on the extensions. Areas in which marking was positive were binarised and the percentage marking per image was determined (marked surface area/total surface area examined).
The results (mean values±standard error with respect to the mean (SEM) were expressed as percentage marking per microscope field (n=8 measurements/culture conditions). 2-factor analysis of variance (Etifoxine and glutamate), followed by the Student Newman-Keuls multiple comparisons test was used for statistical comparison of the results. […]

Data set [2] has as its system rats subjected to histotoxic hypoxia induced by potassium cyanide. Nature of the data set: KCN (i.v.) hypoxia in rats (survival time). The format is in vivo, Wistar male rats. As to conditions: for Percentage variation / Survival time in seconds (m ± sem): Table 5: rats, KCN 4 mg/kg i.p. (so in the source).
In data set [3] the test system is mixed cultures of rat cortical neurones and astrocytes. As to the kind of experiment: Density of neuritic extensions marked by anti-neurofilament antibody, with or without excess glutamate. As to conditions: 10 μM of glutamate (so in the source), 6 hours, compound 1, 3 and 10 μM. Type of data set: cell-based.
The subject of data set [4] is mice subjected to hypobaric hypoxia. Nature of the data set: Hypobaric hypoxia in mice (survival time). As to conditions: for Percentage variation / Survival time in seconds (m ± sem): Table 4: mice, hypobaric hypoxia 160 mmHg. The format is in vivo, NMRI male mice. The method, then:
1.1 Hypobaric Hypoxia in Mice
NMRI male mice from Janvier weighing between 25 and 30 grams were used after acclimatisation in the animal house for at least 7 days (t°=22±2° C.; humidity 50±20%; feed UAR “A04” SAFE (Augy, France) and tap water ad libitum; 12 hour night and day cycle (light from 7 a.m. to 7 p.m.).
The unfasting […] were distributed at random into lots of 10.
The protocol of Nakaniski et al. (1973) Life Sciences, 13, 467-474 was adapted for the purposes of the model.
Each mouse was placed in a dessicator (hermetically sealed enclosure) in which atmospheric pressure was reduced from 760 to 160 mmHg using a water pump. This pressure reduction was carried out in one minute and caused death of the control animals in approximately 1 minute.
The survival time of the animal, which corresponded to the difference between the time to death of the mouse assessed by respiratory arrest less the time required to induce the hypoxia was then noted.
The products under investigation were administered intraperitoneally (i.p.) (0.1 ml/10 g), 30 minutes before inducing hypobaric hypoxia, or orally (0.1 ml/10 g p.o.) 1 hour before hypoxia.
Etifoxine hydrochloride was dissolved in 1% Tween 80. The potassium cyanide (Merck) was dissolved in 0.9% NaCl.
The statistical test used was a one-factor analysis of variance to determine the treated groups, which differed from the control group receiving the vehicle, at a threshold of 5%.

The test system of data set [5] is cortical neurones in the presence of astrocytes in culture. Nature of the data set: Prior cytotoxicity, microscopic observation after 48 hours. The format is cell-based. As to conditions: 100 μM, 48 hours incubation. The method, then:
as §1
A first experiment was carried out (conventional test used to measure the level of cell survival) in order to investigate the cytotoxicity of etifoxine in relation to cortical neurones in the presence of astrocytes in culture and thus to determine the maximum non-toxic concentration of etifoxine.

Take “FGF: positive control: survival culture medium containing Nerve Growth Factor (NGF; 10 ng/ml) and basic Fibroblast Growth Factor (FGFb; 5 ng/ml)”: the “density of neurofilaments in the presence of glutamate” value in data set [1] (positive control NGF 10 ng/ml + FGFb 5 ng/ml, glutamate 2 mM, 24 hours) is recorded as “opposed the effects of 2 mM of glutamate”; in data set [1] (positive control NGF 10 ng/ml + FGFb 5 ng/ml, glutamate 2 and 10 mM, 6 hours), “opposed the decrease in density of neurofilaments induced by glutamate”.
Regarding `CC1(c2ccccc2)OC(N)=Nc2ccc(Cl)cc21` (stereo not shown) [desethyl-etifoxine, 2-amino-6-chloro-4-methyl-4-phenyl-4H-[3,1]benzoxazine], the Percentage variation in data set [2] (compound i.p. dose 30) was −4%; in data set [2] (compound i.p. dose 50) it was −3%; in data set [2] (compound i.p. dose 75) it was “+27%”; in data set [2] (compound p.o. dose 50), “+3%”; in data set [2] (compound p.o. dose 100), “+42%”; in data set [2] (compound p.o. dose 200), “+43%”. The Percentage variation result in data set [4] (i.p. dose 30) is “+34%”; in data set [4] (i.p. dose 50), “+32%”; in data set [4] (i.p. dose 75), “+30%”; in data set [4] (p.o. dose 100) it was “+45%”; in data set [4] (p.o. dose 200) it was “+126%”; in data set [4] (p.o. dose 300), “+126%”. Also, the “Survival time in seconds (m ± sem)” value in data set [2] (compound i.p. dose 30) was 55.0 ± 1.5 s; in data set [2] (compound i.p. dose 50), 55.6 ± 1.5 s; in data set [2] (compound i.p. dose 75), 72.7 ± 5.5 s; in data set [2] (compound p.o. dose 50), 58.8 ± 1.9 s; in data set [2] (compound p.o. dose 100), 81.3 ± 3.8 s; in data set [2] (compound p.o. dose 200), 81.7 ± 4.1 s. Also, the “Survival time in seconds (m ± sem)” value in data set [4] (i.p. dose 30) amounted to 71.7 ± 4.8 s; in data set [4] (i.p. dose 50) it was 70.7 ± 4.3 s; in data set [4] (i.p. dose 75), 69.8 ± 2.7 s; in data set [4] (p.o. dose 100) it was 61.0 ± 2.6 s; in data set [4] (p.o. dose 200) it was 94.9 ± 9.9 s; in data set [4] (p.o. dose 300) it was 94.8 ± 11.2 s. For the same compound, the survival time result in data set [2] (rats, KCN hypoxia, 75 mg/kg i.p.) is on record as “increased survival time in a non-significant manner”; in data set [4] (mice, hypobaric hypoxia, oral administration from 200 mg/kg), “significant increase in survival time”. Besides, the anti-hypoxic activity entry in data set [2] (rats, KCN hypoxia, over 100 mg/kg p.o.) is listed as “showed anti-hypoxic activity”; in data set [4] (mice, hypobaric hypoxia, over 30 mg/kg i.p.), “showed anti-hypoxic activity”. In addition, the “density of marked neurofilaments in the presence of glutamate” value in data set [3] is given as “opposes the decrease in the density of marked neurofilaments”. Moreover, the “astrocyte mortality, visual examination with a microscope” value in data set [5] was “astrocyte mortality was observed”. Also, the “density of marked neurofilaments” value in data set [1] (control culture medium (without glutamate), 6 hours, significant at 10 μM) is on record as “increased the density of labelled neurofilaments in a statistically significant way”. Further, the “density of neurofilaments in the presence of glutamate” value in data set [1] (glutamate 2 mM, 6 hours, only 10 μM of compound) is listed as “opposes the effect of glutamate”.

Source of the values: patent US8338410B2, “Neuroprotective compounds and pharmaceutical compositions comprising them” (Biocodex, priority 2005, dated 2012).
